Where a name gives a salt, the structure may show the parent alone.

For data set [1] the following is noted: oral; presystemic glucuronide conjugation; cited from earlier work.
The conditions of data set [2]: mouse.

In the case of `O=C(c1ccc(OCCN2CCCCC2)cc1)c1c(-c2ccc(O)cc2)sc2cc(O)ccc12` [Raloxifene, [6-hydroxy-2-(4-hydroixyphenyl)benzo[b]thien-3-yl]-4-[2-(1-piperidinyl)ethoxy]phenyl]methanone hydrochloride], the absolute bioavailability entry in data set [1] was “about 2%”.

For “OEG-terminated 1,2-dithiolane-conjugated insulin: insulin conjugated at lysine-29 of the beta-chain with NHS-ester of carboxyl-OEG-terminated thioctamide (x is 8)”, the “oral bioavailability (concluded from glucose reduction)” value in data set [2] (in vivo, po) is “orally bioavailable”. Moreover, the serum glucose entry in data set [2] (oral gavage, 10 mg/mL solution, 10 mL/kg dose) is recorded as “reduction”.

These data come from US6756354B2, “Therapeutic compositions containing oligo (ethylene glycol)-terminated 1,2-dithiolanes and their conjugates” (priority 2001, dated 2004).
